Source: ChEMBL document CHEMBL1144832, “An efficient one-pot synthesis of tethered cyclohexadiene enaminonitriles from methyl-ketones: an effective route to quinazolines” (Bioorg Med Chem Lett, 2008)
pIC50: −log10 of the molar value.

How the values were obtained:
[1] = system: Jurkat; assay: Cytotoxicity against human Jurkat cells; format: functional, cell-based
[2] = system: Bacillus subtilis; assay: Antimicrobial activity against Bacillus subtilis; format: functional
[3] = system: Escherichia coli; assay: Antimicrobial activity against Escherichia coli; format: functional
[4] = system: Saccharomyces cerevisiae; assay: Antimicrobial activity against Saccharomyces cerevisiae; format: functional
[5] = system: ScN2a; assay: Cytotoxicity against mouse ScN2a cells; format: functional

| Compound | CC50 [1] [µM] | MIC [2] [µM] | MIC [3] [µM] | MIC [4] [µM] | Activity [5] [µM] | pIC50 [1] |
| --- | --- | --- | --- | --- | --- | --- |
| CC1=C(/C=C/C2=CC(N)=C(C#N)C(C)(/C=C/C3=C(C)CCCC3(C)C)C2)C(C)(C)CCC1 (stereo unspecified) | 12.7 | ≥ 163 | ≥ 189 | ≥ 197 |  |  |
| CCCCCCC1=Cc2ncnc(N)c2C(C)(CCCCCC)C1 (stereo unspecified) | 12.6 | ≥ 163 | ≥ 189 | ≥ 197 |  |  |
| CC1(c2ccccc2)CC(c2ccccc2)=CC(N)=C1C#N (stereo unspecified) | 15.1 | ≥ 163 | ≥ 189 | ≥ 197 |  |  |
| CC1(c2ccc(Br)cc2)CC(c2ccc(Br)cc2)=CC(N)=C1C#N (stereo unspecified) | 20.5 | ≥ 163 | ≥ 189 | ≥ 197 |  |  |
| CC1(c2ccc(Br)cc2)CC(c2ccc(Br)cc2)=Cc2ncnc(N)c21 (stereo unspecified) | 12.7 | ≥ 163 | ≥ 189 | ≥ 197 |  |  |
| CC1(c2ccc3ccccc3c2)CC(c2ccc3ccccc3c2)=Cc2ncnc(N)c21 (stereo unspecified) | 9.37 | ≥ 163 | ≥ 189 | ≥ 197 |  |  |
| CC1(c2ccccc2)CC(c2ccccc2)=Cc2ncnc(N)c21 (stereo unspecified) | 17.6 | ≥ 163 | ≥ 189 | ≥ 197 |  |  |
| N#Cc1c(N)nc(Sc2ccccc2N)c(C#N)c1-c1ccco1 |  |  |  |  | 18 |  |
| CCCCCCC1=CC(N)=C(C#N)C(C)(CCCCCC)C1 (stereo unspecified) | 46.8 | ≥ 163 | ≥ 189 | ≥ 197 |  |  |
| CC1(c2ccc3ccccc3c2)CC(c2ccc3ccccc3c2)=CC(N)=C1C#N (stereo unspecified) |  | ≥ 163 | ≥ 189 | ≥ 197 |  | 4.72 |
| CC1(c2ccc(-c3ccccc3)cc2)CC(c2ccc(-c3ccccc3)cc2)=Cc2ncnc(N)c21 (stereo unspecified) | 10.4 | ≥ 163 | ≥ 189 | ≥ 197 |  |  |
| CC1(c2ccc(-c3ccccc3)cc2)CC(c2ccc(-c3ccccc3)cc2)=CC(N)=C1C#N (stereo unspecified) | 19.3 | ≥ 163 | ≥ 189 | ≥ 197 |  |  |
| N#Cc1c(N)nc(Sc2ccc(Cl)cc2)c(C#N)c1-c1ccccc1 |  |  |  |  | 35 |  |
| CC1(c2ccc(Br)s2)CC(c2ccc(Br)s2)=CC(N)=C1C#N (stereo unspecified) | 13.9 | ≥ 163 | ≥ 189 | ≥ 197 |  |  |
| CC1(c2ccc(Br)s2)CC(c2ccc(Br)s2)=Cc2ncnc(N)c21 (stereo unspecified) | 9.51 | ≥ 163 | ≥ 189 | ≥ 197 |  |  |
| CC1(c2cccs2)CC(c2cccs2)=CC(N)=C1C#N (stereo unspecified) | 172 | ≥ 163 | ≥ 189 | ≥ 197 |  |  |
| N#Cc1c(N)nc(Sc2ccc(Cl)cc2)c(C#N)c1-c1cccs1 |  |  |  |  | 16 |  |
| CC1(c2ccc(F)cc2)CC(c2ccc(F)cc2)=Cc2ncnc(N)c21 (stereo unspecified) | 3.24 | ≥ 163 | ≥ 189 | ≥ 197 |  |  |
| CC1(c2cccs2)CC(c2cccs2)=Cc2ncnc(N)c21 (stereo unspecified) | 15.4 | ≥ 163 | ≥ 189 | ≥ 197 |  |  |
| CC1(c2ccc(F)cc2)CC(c2ccc(F)cc2)=CC(N)=C1C#N (stereo unspecified) | 19.4 | ≥ 163 | ≥ 189 | ≥ 197 |  |  |
| N#Cc1c(N)nc(Sc2ccc(Cl)cc2)c(C#N)c1-c1ccco1 |  |  |  |  | 19 |  |
| CC1=C(/C=C/C2=Cc3ncnc(N)c3C(C)(/C=C/C3=C(C)CCCC3(C)C)C2)C(C)(C)CCC1 (stereo unspecified) | 12.8 | ≥ 163 | ≥ 189 | ≥ 197 |  |  |
